The record followed here is patent publication US8975442B2, “Process for the preparation of and crystalline forms of optical enantiomers of modafinil” (Teva Sante, priority 2002, dated 2015).

Holding throughout (assay type): physicochemical
Data set [1] can be described thus: Solubility of modafinil acid in ethanol. The text has this: Solubility of the Racemic Mixture in Ethanol:
Data set [2] can be described thus: Solubility of modafinil acid in 2-methoxyethanol. The text has this: Solubility of the Racemic Mixture in 2-Methoxyethanol: […]
The nature of data set [3]: Solubility of modafinil acid in methanol. The text has this: Solubility of the Racemic Mixture in Methanol:

Structures are written as SMILES.

Take `O=C(O)C[S+]([O-])C(c1ccccc1)c1ccccc1` (racemic) [(±)-modafinil acid, (±)-benzhydrylsulphinylacetic acid]: the Solubility by mass came out at 3.0% in data set [1] (10.0 °C); 4.1% in data set [1] (20.0 °C); 5.96% in data set [1] (30.0 °C); 7.4% in data set [2] (10.0 °C); 8% in data set [2] (20.0 °C); 13.5% in data set [2] (30.0 °C). For the same compound, the Solubility by mass turned out to be 16% in data set [2] (40.0 °C); 7.4% in data set [3] (10.0 °C); 9.7% in data set [3] (20.0 °C); 13.9% in data set [3] (30.0 °C); 25.7% in data set [3] (40.0 °C). Also, the results for the “ratio α (ratio of solubilities s(±)/s(+))” value in data set [1] (20 °C), in data set [2] (20 °C) and in data set [3] (20 °C) were 2.06, 2.53 and 2.53, respectively.
`O=C(O)C[S+]([O-])C(c1ccccc1)c1ccccc1` (single isomer, unassigned; (+)) [(+)-antipode]: the Solubility by mass came out at 1.99% in data set [1] (20.0 °C), 4% in data set [2] (20.0 °C) and 4.9% in data set [3] (20.0 °C).
